Measured values as given in article PMC12693182, “Synthesis and QSAR Studies of Claramine Derivatives, a New Class of Broad-Spectrum Antimicrobial Agents” (Molecules, 2025).
Converted amounts (≈) assume the structure as drawn. Where two headings read alike, the source gives them in different places.

Legend:
[1] = test system: Gram-positive and Gram-negative human and veterinary reference strains; assay: MIC against the panel of Gram-positive and Gram-negative reference strains; type: cell-based; details: for MIC: over several or all of the tested pathogens; for Therapeutic Ratio (TR): IC50 (CHO)/MIC, over several of the tested pathogens
Description: Typically, cytotoxicity was expressed as the half maximal inhibitory concentration (IC50), defined as the concentration of a compound that decreases cell viability by 50% relative to untreated cells. This parameter provides a quantitative measure of a compound’s toxic potential toward mammalian cells. To facilitate data interpretation, we defined the Therapeutic Ratio (TR) as the ratio of IC50 (µg/mL) to MIC (µg/mL). This dimensionless parameter provides a straightforward measure of antibacterial selectivity, allowing direct comparison of cytotoxicity and antibacterial potency. A high TR value indicates compounds with strong antibacterial activity at concentrations far below their cytotoxic threshold, whereas a TR close to unity reflects poor selectivity and limited therapeutic potential. […] Within the Claramine A series, variations in IC50 strongly impacted TR values (Figure 5).
(§1) Antimicrobial activity of the compounds was studied by determination of minimal inhibitory concentrations (MIC) according to the NCCLS guidelines M7-A2 using the microbroth dilution methods. The bacteria strains were grown on trypticase soy agar (Becton Dickinson) at 37 °C for 24 h. Inocula were prepared in TCE (tryptone 0.1%, […], wt/vol) by ajusting the turbidity at 623 nm to obtain 1–3 10^5 CFU/mL.
(§2) Antimicrobial activities of the compounds were determined by using a broth microdilution method performed in sterile 96-well microplates. All compounds were solubilized in water at a concentration of 10 mM and were transferred to each microplate well in order to obtain a two-fold serial dilution in 100 µL of broth and 100 µL of inoculum containing 2–6 10^5 CFU of each bacterium were added to each well. Some wells were reserved for positive controls and inoculum viability.

[2] = test system: Chinese hamster Ovary cells (CHO-K1); assay: Cytotoxicity assay (WST-1 / Neutral Red); type: cell-based; details: 24-h incubation; for IC50: Cricetulus griseus, 24 h
Method: The cytotoxic activities of compounds were assessed on Chinese hamster Ovary cells (CHO-K1) provided from ATCC-LGC Standards Sarl (Molsheim, France). Cells were maintained in Mc Coy’s 5A (CHO) medium supplemented with 10% bovine calf serum, 2 mM glutamine, and 100 U mL^−1/10 µg mL^−1 penicillin/streptomycin mixtures. For the cytotoxicity experiments, they were seeded in 96-well plates and incubated at 37 °C in humidified atmosphere containing 5% CO2 overnight, then concentrations of compounds were incorporated in triplicate cultures. After a 24-h incubation period at 37 °C, cells were submitted to three successive washes in phosphate buffer saline (PBS) and cell viability was evaluated by two different vital dyes: • i. A first set of cell cultures was incubated in PBS containing 10% WST-1 for 30 min at 37 °C, 5% CO2. Cell viability was evaluated by the assessment of WST-1 absorbance at 450 nm in a microplate spectrophotometer. • ii. A second set of cell cultures was placed into Neutral Red medium (50 μg mL^−1 Neutral Red in complete medium) and incubated for 3 h at 37 °C, 5% CO2. Then the Neutral Red medium was removed and the distaining solution (50% ethanol, 1% acetic acid, 49% distilled water; 50 µL per well) was added into the wells. The plates were shaken for 15–20 min at room temperature in the dark. Cell viability was evaluated by the assessment of absorbance at 540 nm in a microplate spectrophotometer.
Results were expressed as percentages of cell viability about the control (culture medium-only), which corresponded to 100% cell viability. Dose-response curves were calculated by non-linear regression analysis with TableCurve 2D software (V 5.0.1) (Systat Software Inc., San Jose, CA, USA). The Inhibitory Concentration 50% (IC50) was defined as the concentration of compounds that induced a 50% decrease of viable cells.

[3] = test system: S. aureus ATCC 25923; assay: MIC, broth microdilution; type: cell-based, Staphylococcus aureus; details: ATCC strain; for MIC: Staphylococcus aureus, ATCC25923, 24 h
Method: as §1, §2

[4] = test system: S. aureus 340; assay: MIC, broth microdilution; type: cell-based, Staphylococcus aureus; details: for MIC: Staphylococcus aureus, 340, 24 h; for MIC S. aureus 340: 24 h
Method: as §1, §2

[5] = test system: P. aeruginosa ATCC 27853; assay: MIC, broth microdilution; type: cell-based, Pseudomonas aeruginosa; details: ATCC strain; for MIC: Pseudomonas aeruginosa, ATCC27853, 24 h
Method: as §1, §2

[6] = test system: P. aeruginosa 1051575; assay: MIC, broth microdilution; type: cell-based, Pseudomonas aeruginosa; details: 24 h; for MIC: Pseudomonas aeruginosa, 1051575, 24 h
Method: as §1, §2

[7] = test system: E. coli ATCC 25922; assay: MIC, broth microdilution; type: cell-based, Escherichia coli; details: ATCC strain; for MIC: Escherichia coli, ATCC25922, 24 h
Method: as §1, §2

[8] = test system: E. coli 1956; assay: MIC, broth microdilution; type: cell-based, Escherichia coli; details: for MIC: Escherichia coli, 1956, 24 h
Method: as §1, §2

[9] = test system: S. intermedius 1051997; assay: MIC, broth microdilution; type: cell-based, Staphylococcus intermedius; details: 24 h; for MIC: Staphylococcus intermedius, 1051997, 24 h
Method: as §1, §2

[10] = test system: E. faecalis ATCC29212; assay: MIC, broth microdilution; type: cell-based, Enterococccus faecalis; details: ATCC strain; for MIC: Enterococcus faecalis, ATCC29212, 24 h, read-out: MIC E. faecalis 29212
Method: as §1, §2

[11] = test system: S. aureus 340 and P. aeruginosa 1051575; assay: MIC against S. aureus and P. aeruginosa strains (Figure 6); type: cell-based; details: range over both strains, C-24 methyl ester series
Method: as §1, §2

[12] = Homo sapiens, 24 h, read-out: MIC

SMILES	MIC [1, 12]	Therapeutic Ratio (TR) [1]	IC50 [2]	MIC [3]	MIC [4]	MIC [5]	MIC [6]	MIC [7]	MIC [8]	MIC [9]	MIC [10]	MIC [11]	also measured
CC(C)OC(=O)CCC(C)C1CCC2C3CCC4CC(NCCCNCCCNCCCN)CCC4(C)C3CC(O)C12C (stereo not drawn) [Claramine A02]	< 15 µg/mL	> 5	51 µg/mL (≈ 84.3 µM)	4 µg/mL (≈ 6.61 µM)	2 µg/mL (≈ 3.31 µM)	8 µg/mL (≈ 13.2 µM)	8 µg/mL (≈ 13.2 µM)	8 µg/mL (≈ 13.2 µM)	15 µg/mL (≈ 24.8 µM)	2 µg/mL (≈ 3.31 µM)	8 µg/mL (≈ 13.2 µM)		
COC(=O)CCC(C)C1CCC2C3CCC4CC(NCCCNCCCNCCCN)CCC4(C)C3CC(O)C12C (stereo not drawn) [Claramine A06]												2 to 4 µg/mL (≈ 3.47 to 6.93 µM)	
COC(=O)CCC(C)C1CCC2C3CCC4CC(NCCCNCCCN)CCC4(C)C3CC(O)C12C (stereo not drawn) [Claramine A08]	< 15 µg/mL	> 5	21 µg/mL (≈ 40.4 µM)	2 µg/mL (≈ 3.85 µM)	3 µg/mL (≈ 5.77 µM)	3 µg/mL (≈ 5.77 µM)	3 µg/mL (≈ 5.77 µM)	3 µg/mL (≈ 5.77 µM)	13 µg/mL (≈ 25 µM)	0.4 µg/mL (≈ 0.77 µM)	3 µg/mL (≈ 5.77 µM)		
CC(C)OC(=O)CCC(C)C1CCC2C3CCC4CC(NCCCNCCCCNCCCN)CCC4(C)C3CC(O)C12C (stereo not drawn) [Claramine A01, 3-Spermino Isopropyl Deoxycholate]	< 15 µg/mL	> 5	> 35 µg/mL	2 µg/mL (≈ 3.23 µM)	< 4 µg/mL	8 µg/mL (≈ 12.9 µM)	15 µg/mL (≈ 24.2 µM)	4 µg/mL (≈ 6.46 µM)	15 µg/mL (≈ 24.2 µM)	8 µg/mL (≈ 12.9 µM)	30 µg/mL (≈ 48.5 µM)		MIC [1]: increased membrane permeabilization and concomitant disruption of proton homeostasis; IC50 CHO [2]: 43 µg/mL (≈ 69.5 µM); MIC S. aureus 340 [4]: 2 µg/mL (≈ 3.23 µM)
COC(=O)CCC(C)C1CCC2C3CCC4CC(NCCCCN)CCC4(C)C3CC(O)C12C (stereo not drawn) [Claramine A11]												6 to 50 µg/mL (≈ 12.6 to 105 µM)	
CC(C)OC(=O)CCC(C)C1CCC2C3CCC4CC(NCCCNCCCCN)CCC4(C)C3CC(O)C12C (stereo not drawn) [Claramine A03]	< 15 µg/mL	> 5	73 µg/mL (≈ 130 µM)	7 µg/mL (≈ 12.5 µM)	2 µg/mL (≈ 3.56 µM)	14 µg/mL (≈ 24.9 µM)	14 µg/mL (≈ 24.9 µM)	14 µg/mL (≈ 24.9 µM)	14 µg/mL (≈ 24.9 µM)	4 µg/mL (≈ 7.12 µM)	14 µg/mL (≈ 24.9 µM)		
CC(C)OC(=O)CCC(C)C1CCC2C3C(O)CC4CC(NCCCNCCCCN)CCC4(C)C3CCC12C (stereo not drawn) [Claramine C27]													IC50 CHO [2]: 100 µg/mL (≈ 178 µM); MIC S. aureus 25923 ([3]; 24 h): 7 µg/mL (≈ 12.5 µM); MIC S. aureus 340 [4]: 7 µg/mL (≈ 12.5 µM); MIC P. aeruginosa 27853 ([5]; 24 h): 56 µg/mL (≈ 99.7 µM); MIC P. aeruginosa 1051575 [6]: 56 µg/mL (≈ 99.7 µM); MIC E. coli 25922 ([7]; 24 h): 56 µg/mL (≈ 99.7 µM); MIC E. coli 1956 ([8]; 24 h): 28 µg/mL (≈ 49.8 µM); MIC S. intermedius 1051997 [9]: 7 µg/mL (≈ 12.5 µM); MIC E. faecalis 29212 ([10]; 24 h): 28 µg/mL (≈ 49.8 µM)
COC(=O)CCC(C)C1CCC2C3CCC4CC(NCCCN5CCN(CCCN)CC5)CCC4(C)C3CC(O)C12C (stereo not drawn) [Claramine A18]	< 15 µg/mL	> 5	135 µg/mL (≈ 229 µM)	15 µg/mL (≈ 25.5 µM)	7 µg/mL (≈ 11.9 µM)	15 µg/mL (≈ 25.5 µM)	15 µg/mL (≈ 25.5 µM)	7 µg/mL (≈ 11.9 µM)		4 µg/mL (≈ 6.79 µM)	30 µg/mL (≈ 50.9 µM)		
COC(=O)CCC(C)C1CCC2C3CCC4CC(NCCCN(CCCN)CCCN)CCC4(C)C3CC(O)C12C (stereo not drawn) [Claramine A17]												7 to 14 µg/mL (≈ 12.1 to 24.3 µM)	
